Measurements taken from PubChem BioAssay AID1259407 (Chemical Carcinogenesis Research Information System (CCRIS), 2018).
Active and inactive are the calls of the source. The rule behind the calls is not given here.

System: CCRIS mutagenicity, Ames/micronucleus/aberration tests
Experiment: CCRIS mutagenicity studies
[1] = Test System: AMES SALMONELLA TYPHIMURIUM, Strain/Indicator: TA98, Metabolic Activation: NONE, Method: STANDARD PLATE
[2] = Test System: AMES SALMONELLA TYPHIMURIUM, Strain/Indicator: TA100, Metabolic Activation: RAT, LIVER, S-9, AROCLOR 1254, Method: STANDARD PLATE
[3] = Test System: AMES SALMONELLA TYPHIMURIUM, Strain/Indicator: TA100, Metabolic Activation: NONE, Method: STANDARD PLATE
[4] = Test System: AMES SALMONELLA TYPHIMURIUM, Strain/Indicator: TA1535, Metabolic Activation: NONE, Method: STANDARD PLATE
[5] = Test System: AMES SALMONELLA TYPHIMURIUM, Strain/Indicator: TA1537, Metabolic Activation: NONE, Method: STANDARD PLATE

Measured: mutagenic call

O=Nc1ccc2ccc3cccc4ccc1c2c34
active: Test System: AMES SALMONELLA TYPHIMURIUM, Strain/Indicator: TA98 (1,8-DNP6), Metabolic Activation: NONE, Method: STANDARD PLATE active; positive | Test System: AMES SALMONELLA TYPHIMURIUM, Strain/Indicator: TA98(1,8-DNP6), Metabolic Activation: NONE, Method: STANDARD PLATE active; positive | Test System: AMES SALMONELLA TYPHIMURIUM, Strain/Indicator: TA98 (NR), Metabolic Activation: NONE, Method: STANDARD PLATE active; positive | Test System: AMES SALMONELLA TYPHIMURIUM, Strain/Indicator: TA98(NR), Metabolic Activation: NONE, Method: STANDARD PLATE active; positive | [1] active; positive | Test System: CHINESE HAMSTER OVARY, Strain/Indicator: CHO (HGPRT), Metabolic Activation: NONE, Method: SUSPENSION active; positive | Test System: CHINESE HAMSTER OVARY, Strain/Indicator: CHO-K1-BH4 (HGPRT), Metabolic Activation: NONE, Method: SUSPENSION active; positive | Test System: CHINESE HAMSTER OVARY, Strain/Indicator: CHO/HGPRT, Metabolic Activation: NONE active; positive

Nc1c(S(=O)(=O)O)cc(Nc2cccc(S(=O)(=O)CCOS(=O)(=O)O)c2)c2c1C(=O)c1ccccc1C2=O
active: Test System: MOUSE LYMPHOMA, Strain/Indicator: L5178Y (TK+/TK-), Metabolic Activation: NONE, Method: SUSPENSION/PLATE active; positive

c1ccc2c(c1)Cc1c-2ccc2ccc3ccccc3c12
active: [2] active; positive

CC(C)C(N)C(=O)O (stereo not given)
inactive: Test System: AMES SALMONELLA TYPHIMURIUM, Strain/Indicator: TA98, Metabolic Activation: RAT LIVER S-9, CHLOROPHENE, Method: STANDARD PLATE (COMPOUND HEATED AT 250 DEGREES CELSIUS FOR 20 MIN) inactive; negative

C=C1CC[C@H]2[C@@H](c3c(C)c(O)c4c(c31)C(=O)[C@@H](C)C4)C2(C)C
inactive: [1] inactive; negative | Test System: AMES SALMONELLA TYPHIMURIUM, Strain/Indicator: TA98, Method: STANDARD PLATE inactive; negative | [3] inactive; negative | Test System: AMES SALMONELLA TYPHIMURIUM, Strain/Indicator: TA100, Method: STANDARD PLATE inactive; negative

CC(=O)Nc1snc2ccccc12
active: Test System: AMES SALMONELLA TYPHIMURIUM, Strain/Indicator: TA100, Metabolic Activation: S-9, Method: STANDARD PLATE active; positive | [5] active; positive | Test System: AMES SALMONELLA TYPHIMURIUM, Strain/Indicator: TA1537, Metabolic Activation: S-9, Method: STANDARD PLATE active; positive
inactive: [1] inactive; negative | Test System: AMES SALMONELLA TYPHIMURIUM, Strain/Indicator: TA98, Metabolic Activation: S-9, Method: STANDARD PLATE inactive; negative | [3] inactive; negative | [4] inactive; negative | Test System: AMES SALMONELLA TYPHIMURIUM, Strain/Indicator: TA1535, Metabolic Activation: S-9, Method: STANDARD PLATE inactive; negative

CCN(CC)CC#CCOC(=O)C(O)(c1ccccc1)C1CCCCC1 (stereo not given)
inactive: Test System: AMES SALMONELLA TYPHIMURIUM, Strain/Indicator: TA98, Metabolic Activation: NONE inactive; negative | Test System: AMES SALMONELLA TYPHIMURIUM, Strain/Indicator: TA98, Metabolic Activation: S-9 inactive; negative | Test System: AMES SALMONELLA TYPHIMURIUM, Strain/Indicator: TA100, Metabolic Activation: NONE inactive; negative | Test System: AMES SALMONELLA TYPHIMURIUM, Strain/Indicator: TA100, Metabolic Activation: S-9 inactive; negative | Test System: AMES SALMONELLA TYPHIMURIUM, Strain/Indicator: TA1535, Metabolic Activation: NONE inactive; negative | Test System: AMES SALMONELLA TYPHIMURIUM, Strain/Indicator: TA1535, Metabolic Activation: S-9 inactive; negative | Test System: AMES SALMONELLA TYPHIMURIUM, Strain/Indicator: TA1537, Metabolic Activation: NONE inactive; negative | Test System: AMES SALMONELLA TYPHIMURIUM, Strain/Indicator: TA1537, Metabolic Activation: S-9 inactive; negative | Test System: AMES SALMONELLA TYPHIMURIUM, Strain/Indicator: TA1538, Metabolic Activation: NONE inactive; negative | Test System: AMES SALMONELLA TYPHIMURIUM, Strain/Indicator: TA1538, Metabolic Activation: S-9 inactive; negative | Test System: E. COLI, Strain/Indicator: WP2 UVRA, Metabolic Activation: NONE inactive; negative | Test System: E. COLI, Strain/Indicator: WP2 UVRA, Metabolic Activation: S-9 inactive; negative

O=C(CCc1ccc(O)cc1)c1c(O)cc(O)cc1O
inactive: Test System: AMES SALMONELLA TYPHIMURIUM, Strain/Indicator: TA98, Metabolic Activation: HAMSTER, LIVER, S-9, AROCLOR 1254, Method: STANDARD PLATE inactive; negative | [1] inactive; negative | Test System: AMES SALMONELLA TYPHIMURIUM, Strain/Indicator: TA98, Metabolic Activation: RAT, LIVER, S-9, AROCLOR 1254, Method: STANDARD PLATE inactive; negative | Test System: AMES SALMONELLA TYPHIMURIUM, Strain/Indicator: TA100, Metabolic Activation: HAMSTER, LIVER, S-9, AROCLOR 1254, Method: STANDARD PLATE inactive; negative | [3] inactive; negative | [2] inactive; negative | Test System: AMES SALMONELLA TYPHIMURIUM, Strain/Indicator: TA1535, Metabolic Activation: HAMSTER, LIVER, S-9, AROCLOR 1254, Method: STANDARD PLATE inactive; negative | [4] inactive; negative | Test System: AMES SALMONELLA TYPHIMURIUM, Strain/Indicator: TA1535, Metabolic Activation: RAT, LIVER, S-9, AROCLOR 1254, Method: STANDARD PLATE inactive; negative | Test System: AMES SALMONELLA TYPHIMURIUM, Strain/Indicator: TA1537, Metabolic Activation: HAMSTER, LIVER, S-9, AROCLOR 1254, Method: STANDARD PLATE inactive; negative | [5] inactive; negative | Test System: AMES SALMONELLA TYPHIMURIUM, Strain/Indicator: TA1537, Metabolic Activation: RAT, LIVER, S-9, AROCLOR 1254, Method: STANDARD PLATE inactive; negative | Test System: AMES SALMONELLA TYPHIMURIUM, Strain/Indicator: TA1538, Metabolic Activation: HAMSTER, LIVER, S-9, AROCLOR 1254, Method: STANDARD PLATE inactive; negative | Test System: AMES SALMONELLA TYPHIMURIUM, Strain/Indicator: TA1538, Metabolic Activation: NONE, Method: STANDARD PLATE inactive; negative | Test System: AMES SALMONELLA TYPHIMURIUM, Strain/Indicator: TA1538, Metabolic Activation: RAT, LIVER, S-9, AROCLOR 1254, Method: STANDARD PLATE inactive; negative
